According to patent US7109231B2, “Cyclohept[b]indole derivatives” (Eli Lilly and Company, priority 2001, dated 2006):

Biological target: T1, recombinant human secreted phospholipase A2 (Homo sapiens, UniProt P14555)
T1 sequence (P14555 21-144): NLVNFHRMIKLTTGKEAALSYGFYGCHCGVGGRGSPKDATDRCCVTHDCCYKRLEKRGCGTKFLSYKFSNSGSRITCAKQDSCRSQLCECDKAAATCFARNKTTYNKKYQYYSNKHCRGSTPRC
Test: chromogenic assay for inhibitors of recombinant human secreted phospholipase A2
Format: biochemical
Details: diheptanoyl thio-PC substrate, pH 7.5, 40° C. for 30 minutes, absorbance at 405 nanometers, titrated in triplicate
Text: The following chromogenic assay procedure was used to identify and evaluate inhibitors of recombinant human secreted phospholipase A2. The assay described herein has been adapted for high volume screening using 96 well microtiter plates. A general description of this assay method is found in the article, “Analysis of Human Synovial Fluid Phospholipase A2 on Short Chain Phosphatidylcholine-Mixed Micelles: Development of a Spectrophotometric Assay Suitable for a Microtiterplate Reader”, by Laure J. Reynolds, Lori L. Hughes, and Edward A Dennis, Analytical Biochemistry, 204, pp. 190–197, 1992 (the disclosure of which is incorporated herein by reference): […]
A measured volume of racemic dipheptanoyl thio PC supplied in chloroform at a concentration of 100 mg/ml is taken to dryness and redissolved in 10 millimolar TRITON X-100™ nonionic detergent aqueous solution. […]
• 1. […] Read absorbance of wells at 405 nanometers with an automatic plate reader.
Tests were done in triplicate. […] Compounds initially found to be active were re-assayed to confirm their activity and, if sufficiently active, IC50 values were determined. […] In all cases, % inhibition measured at 405 nanometers generated by enzyme reactions containing inhibitors relative to the uninhibited control reactions was determined. […]

- IC50: 0.248 µM
Structure (SMILES): NC(=O)C1CCCCc2c1c1c(OCC(=O)O)cccc1n2Cc1ccccc1 (stereo not shown) [Example 1, (5-Benzyl-10-carbamoyl-5,6,7,8,9,10-hexahydro-cyclohepta[b]indol-1-yloxy)acetic Acid]
